Test results published in PubChem BioAssay (NCI).
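Compound exposure: 48 hours, 5 concentrations, 96-well plates. At the TGI there is no net growth.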

How the values were obtained:
Assay in all cases: inhibition of tumour cell growth, NCI panel, 48 h
OVCAR-3 ovarian = tested on: OVCAR-3 ovarian
MOLT-4 leukemia = tested on: MOLT-4 leukemia
HT29 colon = tested on: HT29 colon
A549 NSCLC = tested on: A549 NSCLC
SF-268 CNS = tested on: SF-268 CNS
LOX IMVI melanoma = tested on: LOX IMVI melanoma
HOP-92 NSCLC = tested on: HOP-92 NSCLC
COLO 205 colon = tested on: COLO 205 colon
MALME-3M melanoma = tested on: MALME-3M melanoma
TK-10 renal = tested on: TK-10 renal
SF-539 CNS = tested on: SF-539 CNS
NCI-H522 lung = tested on: NCI-H522 lung
NCI-H460 lung = tested on: NCI-H460 lung
OVCAR-8 ovarian = tested on: OVCAR-8 ovarian
K-562 leukemia = tested on: K-562 leukemia
OVCAR-5 ovarian = tested on: OVCAR-5 ovarian
MDA-N = tested on: MDA-N
M14 melanoma = tested on: M14 melanoma
SW-620 colon = tested on: SW-620 colon
SNB-19 CNS = tested on: SNB-19 CNS
NCI-H226 lung = tested on: NCI-H226 lung
NCI/ADR-RES ovarian = tested on: NCI/ADR-RES ovarian
KM12 colon = tested on: KM12 colon
IGROV1 ovarian = tested on: IGROV1 ovarian
EKVX NSCLC = tested on: EKVX NSCLC
CAKI-1 renal = tested on: CAKI-1 renal
UO-31 renal = tested on: UO-31 renal
SF-295 CNS = tested on: SF-295 CNS
HL-60(TB) leukemia = tested on: HL-60(TB) leukemia
MDA-MB-231 breast = tested on: MDA-MB-231 breast
HCT-15 colon = tested on: HCT-15 colon
PC-3 prostate = tested on: PC-3 prostate
ACHN renal = tested on: ACHN renal
SK-MEL-5 melanoma = tested on: SK-MEL-5 melanoma
SR leukemia = tested on: SR leukemia
CCRF-CEM leukemia = tested on: CCRF-CEM leukemia
HCT-116 colon = tested on: HCT-116 colon
UACC-257 melanoma = tested on: UACC-257 melanoma
786-0 renal = tested on: 786-0 renal
BT-549 breast = tested on: BT-549 breast
MDA-MB-435 = tested on: MDA-MB-435
RPMI-8226 leukemia = tested on: RPMI-8226 leukemia
SN12C renal = tested on: SN12C renal
SK-MEL-28 melanoma = tested on: SK-MEL-28 melanoma
UACC-62 melanoma = tested on: UACC-62 melanoma
U251 CNS = tested on: U251 CNS
A498 renal = tested on: A498 renal
SK-MEL-2 melanoma = tested on: SK-MEL-2 melanoma
HS 578T breast = tested on: HS 578T breast
HOP-62 NSCLC = tested on: HOP-62 NSCLC
NCI-H23 lung = tested on: NCI-H23 lung
MCF7 breast = tested on: MCF7 breast
HCC-2998 colon = tested on: HCC-2998 colon
OVCAR-4 ovarian = tested on: OVCAR-4 ovarian
DU-145 prostate = tested on: DU-145 prostate
SK-OV-3 ovarian = tested on: SK-OV-3 ovarian
SNB-75 CNS = tested on: SNB-75 CNS
RXF 393 renal = tested on: RXF 393 renal

Cc1cc(=O)oc2c(OS(C)(=O)=O)c(OS(C)(=O)=O)ccc12
TGI (OVCAR-3 ovarian): > 100 µM
TGI (MOLT-4 leukemia): > 100 µM
TGI (HT29 colon): > 100 µM
TGI (A549 NSCLC): > 100 µM
TGI (SF-268 CNS): > 100 µM
TGI (LOX IMVI melanoma): > 100 µM
TGI (HOP-92 NSCLC): > 100 µM
TGI (COLO 205 colon): > 100 µM
TGI (MALME-3M melanoma): > 100 µM
TGI (TK-10 renal): > 100 µM
TGI (SF-539 CNS): > 100 µM
TGI (NCI-H522 lung): > 100 µM
TGI (NCI-H460 lung): > 100 µM
TGI (OVCAR-8 ovarian): > 100 µM
TGI (K-562 leukemia): > 100 µM
TGI (OVCAR-5 ovarian): > 100 µM
TGI (MDA-N): > 100 µM
TGI (M14 melanoma): > 100 µM
TGI (SW-620 colon): > 100 µM
TGI (SNB-19 CNS): > 100 µM
TGI (NCI-H226 lung): > 100 µM
TGI (NCI/ADR-RES ovarian): > 100 µM
TGI (KM12 colon): > 100 µM
TGI (IGROV1 ovarian): > 100 µM
TGI (EKVX NSCLC): > 100 µM
TGI (CAKI-1 renal): > 100 µM
TGI (UO-31 renal): > 100 µM
TGI (SF-295 CNS): > 100 µM
TGI (HL-60(TB) leukemia): > 100 µM
TGI (MDA-MB-231 breast): > 100 µM
TGI (HCT-15 colon): > 100 µM
TGI (PC-3 prostate): > 100 µM
TGI (ACHN renal): > 100 µM
TGI (SK-MEL-5 melanoma): > 100 µM
TGI (SR leukemia): > 100 µM
TGI (CCRF-CEM leukemia): > 100 µM
TGI (HCT-116 colon): > 100 µM
TGI (UACC-257 melanoma): > 100 µM
TGI (786-0 renal): > 100 µM
TGI (BT-549 breast): > 100 µM
TGI (MDA-MB-435): > 100 µM
TGI (RPMI-8226 leukemia): > 100 µM
TGI (SN12C renal): > 100 µM
TGI (SK-MEL-28 melanoma): > 100 µM
TGI (UACC-62 melanoma): > 100 µM
TGI (U251 CNS): > 100 µM
TGI (A498 renal): > 100 µM
TGI (SK-MEL-2 melanoma): > 100 µM
TGI (HS 578T breast): > 100 µM
TGI (HOP-62 NSCLC): > 100 µM
TGI (NCI-H23 lung): > 100 µM
TGI (MCF7 breast): > 100 µM
TGI (HCC-2998 colon): > 100 µM
TGI (OVCAR-4 ovarian): > 100 µM

O=Nc1sc(=N\O)/c(=N/O)sc1NO
TGI (OVCAR-3 ovarian): > 100 µM
TGI (MOLT-4 leukemia): > 100 µM
TGI (HT29 colon): > 100 µM
TGI (A549 NSCLC): > 100 µM
TGI (LOX IMVI melanoma): > 100 µM
TGI (HOP-92 NSCLC): > 100 µM
TGI (DU-145 prostate): > 100 µM
TGI (COLO 205 colon): > 100 µM
TGI (MALME-3M melanoma): > 100 µM
TGI (SF-539 CNS): > 100 µM
TGI (NCI-H522 lung): > 100 µM
TGI (NCI-H460 lung): > 100 µM
TGI (OVCAR-8 ovarian): > 100 µM
TGI (K-562 leukemia): > 100 µM
TGI (OVCAR-5 ovarian): > 100 µM
TGI (MDA-N): > 100 µM
TGI (M14 melanoma): > 100 µM
TGI (SW-620 colon): > 100 µM
TGI (SK-OV-3 ovarian): > 100 µM
TGI (SNB-19 CNS): > 100 µM
TGI (NCI-H226 lung): > 100 µM
TGI (NCI/ADR-RES ovarian): > 100 µM
TGI (KM12 colon): > 100 µM
TGI (SNB-75 CNS): > 100 µM
TGI (IGROV1 ovarian): > 100 µM
TGI (EKVX NSCLC): > 100 µM
TGI (CAKI-1 renal): > 100 µM
TGI (UO-31 renal): > 100 µM
TGI (SF-295 CNS): > 100 µM
TGI (HL-60(TB) leukemia): > 100 µM
TGI (MDA-MB-231 breast): > 100 µM
TGI (HCT-15 colon): > 100 µM
TGI (PC-3 prostate): > 100 µM
TGI (ACHN renal): > 100 µM
TGI (SK-MEL-5 melanoma): > 100 µM
TGI (SR leukemia): > 100 µM
TGI (CCRF-CEM leukemia): > 100 µM
TGI (HCT-116 colon): > 100 µM
TGI (UACC-257 melanoma): > 100 µM
TGI (786-0 renal): > 100 µM
TGI (BT-549 breast): > 100 µM
TGI (MDA-MB-435): > 100 µM
TGI (RPMI-8226 leukemia): > 100 µM
TGI (SN12C renal): > 100 µM
TGI (SK-MEL-28 melanoma): > 100 µM
TGI (RXF 393 renal): > 100 µM
TGI (UACC-62 melanoma): > 100 µM
TGI (U251 CNS): > 100 µM
TGI (A498 renal): > 100 µM
TGI (SK-MEL-2 melanoma): > 100 µM
TGI (HOP-62 NSCLC): > 100 µM
TGI (NCI-H23 lung): > 100 µM
TGI (MCF7 breast): > 100 µM
TGI (HCC-2998 colon): > 100 µM
TGI (OVCAR-4 ovarian): > 100 µM

C/C=C1\CNC1C(=O)O (stereo unspecified)
TGI (OVCAR-3 ovarian): > 100 µM
TGI (HT29 colon): > 100 µM
TGI (A549 NSCLC): > 100 µM
TGI (SF-268 CNS): > 100 µM
TGI (LOX IMVI melanoma): > 100 µM
TGI (HOP-92 NSCLC): > 100 µM
TGI (COLO 205 colon): > 100 µM
TGI (MALME-3M melanoma): > 100 µM
TGI (TK-10 renal): > 100 µM
TGI (SF-539 CNS): > 100 µM
TGI (NCI-H460 lung): > 100 µM
TGI (OVCAR-8 ovarian): > 100 µM
TGI (K-562 leukemia): > 100 µM
TGI (OVCAR-5 ovarian): > 100 µM
TGI (MDA-N): > 100 µM
TGI (SW-620 colon): > 100 µM
TGI (SK-OV-3 ovarian): > 100 µM
TGI (SNB-19 CNS): > 100 µM
TGI (NCI/ADR-RES ovarian): > 100 µM
TGI (IGROV1 ovarian): > 100 µM
TGI (EKVX NSCLC): > 100 µM
TGI (CAKI-1 renal): > 100 µM
TGI (UO-31 renal): > 100 µM
TGI (SF-295 CNS): > 100 µM
TGI (HL-60(TB) leukemia): > 100 µM
TGI (HCT-15 colon): > 100 µM
TGI (PC-3 prostate): > 100 µM
TGI (ACHN renal): > 100 µM
TGI (SK-MEL-5 melanoma): > 100 µM
TGI (CCRF-CEM leukemia): > 100 µM
TGI (HCT-116 colon): > 100 µM
TGI (UACC-257 melanoma): > 100 µM
TGI (786-0 renal): > 100 µM
TGI (BT-549 breast): > 100 µM
TGI (MDA-MB-435): > 100 µM
TGI (RPMI-8226 leukemia): > 100 µM
TGI (SN12C renal): > 100 µM
TGI (SK-MEL-28 melanoma): > 100 µM
TGI (UACC-62 melanoma): > 100 µM
TGI (A498 renal): > 100 µM
TGI (SK-MEL-2 melanoma): > 100 µM
TGI (HS 578T breast): > 100 µM
TGI (HOP-62 NSCLC): > 100 µM
TGI (NCI-H23 lung): > 100 µM
TGI (MCF7 breast): > 100 µM
TGI (HCC-2998 colon): > 100 µM
TGI (OVCAR-4 ovarian): > 100 µM

Cc1ccc2[nH]c3c(c2c1)CCC/C3=N/N=C(N)N
TGI (OVCAR-3 ovarian): 8.21 µM
TGI (HT29 colon): 3.39 µM
TGI (LOX IMVI melanoma): 4.39 µM
TGI (HOP-92 NSCLC): 6.5 µM
TGI (DU-145 prostate): 3.34 µM
TGI (COLO 205 colon): 3.13 µM
TGI (MALME-3M melanoma): 5.45 µM
TGI (NCI-H460 lung): 2.89 µM
TGI (OVCAR-8 ovarian): 4.49 µM
TGI (K-562 leukemia): 5 µM
TGI (OVCAR-5 ovarian): 5.53 µM
TGI (MDA-N): 2.89 µM
TGI (M14 melanoma): 3.15 µM
TGI (SW-620 colon): > 100 µM
TGI (SK-OV-3 ovarian): 38.3 µM
TGI (SNB-19 CNS): 4.76 µM
TGI (NCI-H226 lung): 10.1 µM
TGI (KM12 colon): 3.16 µM
TGI (SNB-75 CNS): 4.54 µM
TGI (IGROV1 ovarian): 3.54 µM
TGI (EKVX NSCLC): 6.78 µM
TGI (CAKI-1 renal): 2.94 µM
TGI (HL-60(TB) leukemia): > 100 µM
TGI (MDA-MB-231 breast): 3.04 µM
TGI (PC-3 prostate): 10.2 µM
TGI (ACHN renal): 3.64 µM
TGI (SK-MEL-5 melanoma): 3.4 µM
TGI (SR leukemia): 5.64 µM
TGI (UACC-257 melanoma): 7.41 µM
TGI (BT-549 breast): 41.1 µM
TGI (RPMI-8226 leukemia): 5.12 µM
TGI (SN12C renal): 3.05 µM
TGI (RXF 393 renal): 3.95 µM
TGI (UACC-62 melanoma): 4.73 µM
TGI (U251 CNS): 4.72 µM
TGI (A498 renal): 45.2 µM
TGI (SK-MEL-2 melanoma): 3.41 µM
TGI (NCI-H23 lung): 9.97 µM
TGI (HCC-2998 colon): 3.3 µM
TGI (OVCAR-4 ovarian): 11.4 µM
